Paper PMC10949855 (Journal of veterinary pharmacology and therapeutics, 2022)

Test system: healthy dogs
Experiment: Sedation score
Format: in vivo, dogs (Beagles)
[1] = IV CRI 0.2 mg/kg + 0.2 mg/kg/hr for 8 hr, 0.5 hr
[2] = IV CRI 0.2 mg/kg + 0.2 mg/kg/hr for 8 hr, 1 hr
[3] = IV CRI 0.2 mg/kg + 0.2 mg/kg/hr for 8 hr, 1.5 hr
[4] = IV CRI 0.2 mg/kg + 0.2 mg/kg/hr for 8 hr, 2 hr
[5] = IV CRI 0.2 mg/kg + 0.2 mg/kg/hr for 8 hr, 3 hr
[6] = IV CRI 0.2 mg/kg + 0.2 mg/kg/hr for 8 hr, 4 hr
[7] = IV CRI 0.2 mg/kg + 0.2 mg/kg/hr for 8 hr, 5 hr
[8] = IV CRI 0.2 mg/kg + 0.2 mg/kg/hr for 8 hr, 6 hr
[9] = IV CRI 0.2 mg/kg + 0.2 mg/kg/hr for 8 hr, 7 hr
[10] = IV CRI 0.2 mg/kg + 0.2 mg/kg/hr for 8 hr, 8 hr
[11] = IV CRI 0.2 mg/kg + 0.2 mg/kg/hr for 8 hr, 9 hr
[12] = IV CRI 0.2 mg/kg + 0.2 mg/kg/hr for 8 hr, 10 hr
[13] = IV CRI 0.2 mg/kg + 0.2 mg/kg/hr for 8 hr, 11 hr
[14] = IV CRI 0.2 mg/kg + 0.2 mg/kg/hr for 8 hr, 12 hr
[15] = IV CRI 0.2 mg/kg + 0.2 mg/kg/hr for 8 hr, 24 hr
[16] = IV inhibitors, 0.4 mg/kg IV after CYP inhibitors, 0.5 hr
[17] = IV inhibitors, 0.4 mg/kg IV after CYP inhibitors, 1 hr
[18] = IV inhibitors, 0.4 mg/kg IV after CYP inhibitors, 1.5 hr
[19] = IV inhibitors, 0.4 mg/kg IV after CYP inhibitors, 2 hr
[20] = IV inhibitors, 0.4 mg/kg IV after CYP inhibitors, 3 hr
[21] = IV inhibitors, 0.4 mg/kg IV after CYP inhibitors, 4 hr
[22] = IV inhibitors, 0.4 mg/kg IV after CYP inhibitors, 5 hr
[23] = IV inhibitors, 0.4 mg/kg IV after CYP inhibitors, 6 hr
[24] = IV inhibitors, 0.4 mg/kg IV after CYP inhibitors, 7 hr
[25] = IV inhibitors, 0.4 mg/kg IV after CYP inhibitors, 8 hr
[26] = IV inhibitors, 0.4 mg/kg IV after CYP inhibitors, 9 hr
[27] = IV inhibitors, 0.4 mg/kg IV after CYP inhibitors, 10 hr
[28] = IV inhibitors, 0.4 mg/kg IV after CYP inhibitors, 11 hr
[29] = IV inhibitors, 0.4 mg/kg IV after CYP inhibitors, 12 hr
[30] = IV inhibitors, 0.4 mg/kg IV after CYP inhibitors, 24 hr

## Oc1ccc2c(c1)[C@@]13CCCC[C@@]1(O)[C@@H](C2)N(CC1CCC1)CC3 [butorphanol]
[1]
  number of dogs with sedation score 0: 0
  number of dogs with sedation score 1: 3
  number of dogs with sedation score 2: 2
  number of dogs with sedation score 3: 0
[2]
  number of dogs with sedation score 0: 0
  number of dogs with sedation score 1: 3
  number of dogs with sedation score 2: 1
  number of dogs with sedation score 3: 1
[3]
  number of dogs with sedation score 0: 0
  number of dogs with sedation score 1: 3
  number of dogs with sedation score 2: 1
  number of dogs with sedation score 3: 1
[4]
  number of dogs with sedation score 0: 0
  number of dogs with sedation score 1: 3
  number of dogs with sedation score 2: 2
  number of dogs with sedation score 3: 0
[5]
  number of dogs with sedation score 0: 0
  number of dogs with sedation score 1: 3
  number of dogs with sedation score 2: 2
  number of dogs with sedation score 3: 0
[6]
  number of dogs with sedation score 0: 0
  number of dogs with sedation score 1: 4
  number of dogs with sedation score 2: 1
  number of dogs with sedation score 3: 0
[7]
  number of dogs with sedation score 0: 0
  number of dogs with sedation score 1: 4
  number of dogs with sedation score 2: 1
  number of dogs with sedation score 3: 0
[8]
  number of dogs with sedation score 0: 0
  number of dogs with sedation score 1: 4
  number of dogs with sedation score 2: 1
  number of dogs with sedation score 3: 0
[9]
  number of dogs with sedation score 0: 0
  number of dogs with sedation score 1: 4
  number of dogs with sedation score 2: 1
  number of dogs with sedation score 3: 0
[10]
  number of dogs with sedation score 0: 0
  number of dogs with sedation score 1: 3
  number of dogs with sedation score 2: 2
  number of dogs with sedation score 3: 0
[11]
  number of dogs with sedation score 0: 0
  number of dogs with sedation score 1: 5
  number of dogs with sedation score 2: 0
  number of dogs with sedation score 3: 0
[12]
  number of dogs with sedation score 0: 0
  number of dogs with sedation score 1: 5
  number of dogs with sedation score 2: 0
  number of dogs with sedation score 3: 0
[13]
  number of dogs with sedation score 0: 2
  number of dogs with sedation score 1: 3
  number of dogs with sedation score 2: 0
  number of dogs with sedation score 3: 0
[14]
  number of dogs with sedation score 0: 4
  number of dogs with sedation score 1: 1
  number of dogs with sedation score 2: 0
  number of dogs with sedation score 3: 0
[15]
  number of dogs with sedation score 0: 5
  number of dogs with sedation score 1: 0
  number of dogs with sedation score 2: 0
  number of dogs with sedation score 3: 0
IV bolus 0.4 mg/kg IV
  time with moderate sedation or higher (sedation score >1) in at least one dog: 1.5 to 2 h
IV bolus 0.4 mg/kg, 0.5 hr
  number of dogs with sedation score 0: 0
  number of dogs with sedation score 1: 6
  number of dogs with sedation score 2: 0
  number of dogs with sedation score 3: 0
IV bolus 0.4 mg/kg, 1 hr
  number of dogs with sedation score 0: 0
  number of dogs with sedation score 1: 6
  number of dogs with sedation score 2: 0
  number of dogs with sedation score 3: 0
IV bolus 0.4 mg/kg, 1.5 hr
  number of dogs with sedation score 0: 0
  number of dogs with sedation score 1: 5
  number of dogs with sedation score 2: 1
  number of dogs with sedation score 3: 0
IV bolus 0.4 mg/kg, 2 hr
  number of dogs with sedation score 0: 0
  number of dogs with sedation score 1: 5
  number of dogs with sedation score 2: 1
  number of dogs with sedation score 3: 0
IV bolus 0.4 mg/kg, 3 hr
  number of dogs with sedation score 0: 0
  number of dogs with sedation score 1: 6
  number of dogs with sedation score 2: 0
  number of dogs with sedation score 3: 0
IV bolus 0.4 mg/kg, 4 hr
  number of dogs with sedation score 0: 1
  number of dogs with sedation score 1: 5
  number of dogs with sedation score 2: 0
  number of dogs with sedation score 3: 0
IV bolus 0.4 mg/kg, 5 hr
  number of dogs with sedation score 0: 1
  number of dogs with sedation score 1: 5
  number of dogs with sedation score 2: 0
  number of dogs with sedation score 3: 0
IV bolus 0.4 mg/kg, 6 hr
  number of dogs with sedation score 0: 5
  number of dogs with sedation score 1: 1
  number of dogs with sedation score 2: 0
  number of dogs with sedation score 3: 0
IV bolus 0.4 mg/kg, 7 hr
  number of dogs with sedation score 0: 5
  number of dogs with sedation score 1: 1
  number of dogs with sedation score 2: 0
  number of dogs with sedation score 3: 0
IV bolus 0.4 mg/kg, 8 hr
  number of dogs with sedation score 0: 6
  number of dogs with sedation score 1: 0
  number of dogs with sedation score 2: 0
  number of dogs with sedation score 3: 0
IV bolus 0.4 mg/kg, 9 hr
  number of dogs with sedation score 0: 6
  number of dogs with sedation score 1: 0
  number of dogs with sedation score 2: 0
  number of dogs with sedation score 3: 0
IV bolus 0.4 mg/kg, 10 hr
  number of dogs with sedation score 0: 6
  number of dogs with sedation score 1: 0
  number of dogs with sedation score 2: 0
  number of dogs with sedation score 3: 0
IV bolus 0.4 mg/kg, 11 hr
  number of dogs with sedation score 0: 6
  number of dogs with sedation score 1: 0
  number of dogs with sedation score 2: 0
  number of dogs with sedation score 3: 0
IV bolus 0.4 mg/kg, 12 hr
  number of dogs with sedation score 0: 6
  number of dogs with sedation score 1: 0
  number of dogs with sedation score 2: 0
  number of dogs with sedation score 3: 0
IV bolus 0.4 mg/kg, 24 hr
  number of dogs with sedation score 0: 4
  number of dogs with sedation score 1: 0
  number of dogs with sedation score 2: 0
  number of dogs with sedation score 3: 0
[16]
  number of dogs with sedation score 0: 0
  number of dogs with sedation score 1: 6
  number of dogs with sedation score 2: 0
  number of dogs with sedation score 3: 0
[17]
  number of dogs with sedation score 0: 0
  number of dogs with sedation score 1: 6
  number of dogs with sedation score 2: 0
  number of dogs with sedation score 3: 0
[18]
  number of dogs with sedation score 0: 0
  number of dogs with sedation score 1: 6
  number of dogs with sedation score 2: 0
  number of dogs with sedation score 3: 0
[19]
  number of dogs with sedation score 0: 0
  number of dogs with sedation score 1: 4
  number of dogs with sedation score 2: 2
  number of dogs with sedation score 3: 0
[20]
  number of dogs with sedation score 0: 0
  number of dogs with sedation score 1: 5
  number of dogs with sedation score 2: 1
  number of dogs with sedation score 3: 0
[21]
  number of dogs with sedation score 0: 3
  number of dogs with sedation score 1: 3
  number of dogs with sedation score 2: 0
  number of dogs with sedation score 3: 0
[22]
  number of dogs with sedation score 0: 6
  number of dogs with sedation score 1: 0
  number of dogs with sedation score 2: 0
  number of dogs with sedation score 3: 0
[23]
  number of dogs with sedation score 0: 6
  number of dogs with sedation score 1: 0
  number of dogs with sedation score 2: 0
  number of dogs with sedation score 3: 0
[24]
  number of dogs with sedation score 0: 6
  number of dogs with sedation score 1: 0
  number of dogs with sedation score 2: 0
  number of dogs with sedation score 3: 0
[25]
  number of dogs with sedation score 0: 6
  number of dogs with sedation score 1: 0
  number of dogs with sedation score 2: 0
  number of dogs with sedation score 3: 0
[26]
  number of dogs with sedation score 0: 6
  number of dogs with sedation score 1: 0
  number of dogs with sedation score 2: 0
  number of dogs with sedation score 3: 0
[27]
  number of dogs with sedation score 0: 6
  number of dogs with sedation score 1: 0
  number of dogs with sedation score 2: 0
  number of dogs with sedation score 3: 0
[28]
  number of dogs with sedation score 0: 6
  number of dogs with sedation score 1: 0
  number of dogs with sedation score 2: 0
  number of dogs with sedation score 3: 0
[29]
  number of dogs with sedation score 0: 6
  number of dogs with sedation score 1: 0
  number of dogs with sedation score 2: 0
  number of dogs with sedation score 3: 0
[30]
  number of dogs with sedation score 0: 6
  number of dogs with sedation score 1: 0
  number of dogs with sedation score 2: 0
  number of dogs with sedation score 3: 0
SC 0.4 mg/kg
  time with moderate sedation or greater in at least 1 dog: 1.5 to 2 h
SC 0.4 mg/kg, 0.5 hr
  number of dogs with sedation score 0: 0
  number of dogs with sedation score 1: 6
  number of dogs with sedation score 2: 0
  number of dogs with sedation score 3: 0
SC 0.4 mg/kg, 1 hr
  number of dogs with sedation score 0: 0
  number of dogs with sedation score 1: 6
  number of dogs with sedation score 2: 0
  number of dogs with sedation score 3: 0
SC 0.4 mg/kg, 1.5 hr
  number of dogs with sedation score 0: 0
  number of dogs with sedation score 1: 5
  number of dogs with sedation score 2: 1
  number of dogs with sedation score 3: 0
SC 0.4 mg/kg, 2 hr
  number of dogs with sedation score 0: 0
  number of dogs with sedation score 1: 5
  number of dogs with sedation score 2: 1
  number of dogs with sedation score 3: 0
SC 0.4 mg/kg, 3 hr
  number of dogs with sedation score 0: 1
  number of dogs with sedation score 1: 5
  number of dogs with sedation score 2: 0
  number of dogs with sedation score 3: 0
SC 0.4 mg/kg, 4 hr
  number of dogs with sedation score 0: 2
  number of dogs with sedation score 1: 4
  number of dogs with sedation score 2: 0
  number of dogs with sedation score 3: 0
SC 0.4 mg/kg, 5 hr
  number of dogs with sedation score 0: 2
  number of dogs with sedation score 1: 4
  number of dogs with sedation score 2: 0
  number of dogs with sedation score 3: 0
SC 0.4 mg/kg, 6 hr
  number of dogs with sedation score 0: 4
  number of dogs with sedation score 1: 2
  number of dogs with sedation score 2: 0
  number of dogs with sedation score 3: 0
SC 0.4 mg/kg, 7 hr
  number of dogs with sedation score 0: 6
  number of dogs with sedation score 1: 0
  number of dogs with sedation score 2: 0
  number of dogs with sedation score 3: 0
SC 0.4 mg/kg, 8 hr
  number of dogs with sedation score 0: 6
  number of dogs with sedation score 1: 0
  number of dogs with sedation score 2: 0
  number of dogs with sedation score 3: 0
SC 0.4 mg/kg, 9 hr
  number of dogs with sedation score 0: 6
  number of dogs with sedation score 1: 0
  number of dogs with sedation score 2: 0
  number of dogs with sedation score 3: 0
SC 0.4 mg/kg, 10 hr
  number of dogs with sedation score 0: 6
  number of dogs with sedation score 1: 0
  number of dogs with sedation score 2: 0
  number of dogs with sedation score 3: 0
SC 0.4 mg/kg, 11 hr
  number of dogs with sedation score 0: 6
  number of dogs with sedation score 1: 0
  number of dogs with sedation score 2: 0
  number of dogs with sedation score 3: 0
SC 0.4 mg/kg, 12 hr
  number of dogs with sedation score 0: 6
  number of dogs with sedation score 1: 0
  number of dogs with sedation score 2: 0
  number of dogs with sedation score 3: 0
SC 0.4 mg/kg, 24 hr
  number of dogs with sedation score 0: 6
  number of dogs with sedation score 1: 0
  number of dogs with sedation score 2: 0
  number of dogs with sedation score 3: 0
